Data from PMC10634346 (Cancer Research Communications, 2023).

Experiments:
Type in all cases: cell-based, human
[1] = test system: RNA polymerase II Ser2 phosphorylation (p-Ser2) in SU-DHL-10 cells; assay: In vitro washout, p-Ser2 Western blot, SU-DHL-10; conditions: 1 µmol/L, 4-hour treatment then washout
Method: (§1) Evaluation of the pharmacodynamic extent and duration of CDK9 inhibition were performed in vitro using the human DLBCL cell lines SU-DHL-4 and SU-DHL-10, harboring MYC amplification and MYC overexpression with P57T mutation, respectively. Cells were seeded 18 hours prior to treatment for 4 hours with one of three CDK9 inhibitors, enitociclib (0.25 and1 µmol/L), atuveciclib (1 µmol/L) or KB-0742 (1 µmol/L), cells were washed, and incubation continued until 48 hours posttreatment. Samples were collected before treatment (−4), immediately after treatment (0), and at 1, 2, 4, 8, 12, 16, 24, and 48 hours after washout for RNA sequencing (RNA-seq), qPCR, and Western blotting analyses.
(§2) The levels of p-Ser2, p-Ser5 and total RNA polymerase II, Myc, Mcl-1, cleaved PARP (cPARP), and cleaved Caspase 3 were assessed by Western blotting and quantified near-infrared detection and background corrected quantification of fluorescence intensity on an Odyssey Imaging System with IRDye secondary antibodies (LI-COR Biosciences). For quantification, the protein levels were normalized to GAPDH or HSP90, expressed as a ratio to DMSO or vehicle control at matched timepoints. The normalized relative protein levels of p-Ser2 were used for a treatment effect comparison by performing an ANOVA using PROC MIXED in SAS. The ANOVA model included treatment, timepoints and their interactions as fixed effects. The least square means (LSM), differences between the LSMs and associated P values were generated. The following primary antibodies were used: Rpb1 NTD (D8L4Y) rabbit antibody [Cell Signaling Technology (CST), #14958], anti-RNA polymerase II subunit B1 (phospho CTD Ser-2, clone 3E10) rat antibody (Merck, 04-1571-I), recombinant anti-c-MYC rabbit antibody (Y69; Abcam, #ab32072), MCL1 (D5V5L) rabbit antibody (CST, #39224), cleaved-PARP (Asp214) (E2T4K) mouse antibody (CST, #32563), HSP90 (C45G5) rabbit antibody (CST, #4877), and GAPDH mouse antibody (Zytomed Systems, #ZYT-RGM2-6C5).

[2] = test system: MYC mRNA in SU-DHL-10 cells; assay: In vitro washout, MYC mRNA qPCR, SU-DHL-10; conditions: 1 µmol/L 4 h then washout, maintained for up to 16 hours after treatment
Method: (§3) Evaluation of the pharmacodynamic extent and duration of CDK9 inhibition were performed in vitro using the human DLBCL cell lines SU-DHL-4 and SU-DHL-10, harboring MYC amplification and MYC overexpression with P57T mutation, respectively. Cells were seeded 18 hours prior to treatment for 4 hours with one of three CDK9 inhibitors, enitociclib (0.25 and1 µmol/L), atuveciclib (1 µmol/L) or KB-0742 (1 µmol/L), cells were washed, and incubation continued until 48 hours posttreatment. Samples were collected before treatment (−4), immediately after treatment (0), and at 1, 2, 4, 8, 12, 16, 24, and 48 hours after washout for RNA sequencing (RNA-seq), qPCR, and Western blotting analyses. Total RNA was extracted from blood of patients and cell lines using RNeasy Plus Mini Kit (QIAGEN, #74136) and cDNA prepared with the Maxima First Strand cDNA Synthesis Kit for RT-PCR (Thermo Fisher Scientific, K1642) according to manufacturer's instructions. The integrity of purified total RNA was evaluated using an Agilent 2100 Bioanalyzer system and RNA 6000 Nano Kit (Agilent, #5067-1511). Differential gene expression analysis was performed (Fios Genomics) from RNA-seq data (Discovery Life Sciences). MYC and MCL1 mRNA levels were measured by qPCR in vitro and in vivo, using a Taqman qPCR system (Thermo Fisher Scientific), TaqMan Fast Universal PCR Master Mix (2X) no AmpErase (#4352042) and TaqMan probes for MYC (Hs00153408_m1) and MCL1 (Hs03043899_m1). RNA-seq data were analyzed using DESeq2 ([35]).

cPARP in SU-DHL-10 cells = assay: In vitro washout, cPARP Western blot, SU-DHL-10; conditions: 1 µmol/L, 4 h treatment then washout
Method: as §1
(§4) The levels of p-Ser2, p-Ser5 and total RNA polymerase II, Myc, Mcl-1, cleaved PARP (cPARP), and cleaved Caspase 3 were assessed by Western blotting and quantified near-infrared detection and background corrected quantification of fluorescence intensity on an Odyssey Imaging System with IRDye secondary antibodies (LI-COR Biosciences). For quantification, the protein levels were normalized to GAPDH or HSP90, expressed as a ratio to DMSO or vehicle control at matched timepoints. The normalized relative protein levels of p-Ser2 were used for a treatment effect comparison by performing an ANOVA using PROC MIXED in SAS. The ANOVA model included treatment, timepoints and their interactions as fixed effects. […]

[3] = test system: RNA polymerase II Ser2 phosphorylation (p-Ser2) in SU-DHL-4 cells; assay: In vitro washout, p-Ser2 Western blot, SU-DHL-4; conditions: 1 µmol/L, 4-hour treatment then washout
Method: as §1, §2

[4] = test system: MCL1 mRNA in SU-DHL-10 cells; assay: In vitro washout, MCL1 mRNA qPCR, SU-DHL-10; conditions: 1 µmol/L 4 h then washout, maintained for up to 16 hours after treatment
Method: as §3

[5] = test system: SU-DHL-4 and SU-DHL-10 cell lines; assay: RNA-seq differential gene expression in DLBCL cell lines; conditions: for PHF23 and TP53RK by RNA-seq (in words): 1 µmol/L, 4 hours
Method: as §3, with “([35]). RNA-seq data generated from the analysis of two cell lines treated with the three CDK9 inhibitors was analyzed to investigate the differences in gene expression levels between various posttreatment timepoints and the pretreatment samples. Quality control assessment and exploratory data analysis by principal component analysis (PCA) were done on raw counts and on normalized count data. Normalization of RNA-seq count data was done using trimmed mean of M-values normalization and transformed with voom, resulting in log2 counts per million with associated precision weights. […] Significance values (Padj) were adjusted for multiple testing, by controlling the FDR using the Benjamini–Hochberg procedure. […] RNA-seq data generated from blood samples taken from patients before and after their first dose (C1D1) or after multiple doses, before and after their third dose (C1D15) were analyzed and normalized using the same pipeline as cell lines for comparisons.” for “([35]).”

[6] = test system: Myc and Mcl-1 protein in SU-DHL-4 cells; assay: In vitro washout, Myc and Mcl-1 protein Western blot, SU-DHL-4; conditions: 0.25 µmol/L enitociclib, atuveciclib (1 µmol/L)
Method: as §1, §4

Row | Structure (SMILES) | p-Ser2 inhibition (in words) [1] | depletion of MYC mRNA levels [2] | effect on cPARP (in words) (cPARP in SU-DHL-10 cells) | decrease of p-Ser2 levels [3] [%] | duration of p-Ser2 decrease [3] | depletion of MCL1 mRNA levels [4] | PHF23 and TP53RK by RNA-seq (in words) [5] | MCL1 mRNA by RNA-seq (in words) ([5]; 4 hours treatment, in vitro) | MYC mRNA by RNA-seq (in words) ([5]; 4 hours treatment, in vitro) | sustained Myc and Mcl-1 protein depletion for 48 hours (in words) [6] | ZPF36 by RNA-seq (in words) ([5]; 4 hours treatment, in vitro)
1 | CCC(CC)c1cc(N[C@H]2CC[C@H](N)C2)n2nccc2n1 [KB-0742] | only in the presence of the treatment compound and not after washout | approximately 50% | no effect | 50 | up to 12 hours | approximately 50% | not | upregulated | not statistically significant |  | 
2 | COc1cc(F)ccc1-c1ncnc(Nc2cccc(C[S@](C)(=N)=O)c2)n1 [atuveciclib, reference compound] | only in the presence of the treatment compound and not after washout | approximately 50% |  | ~50 | up to 16 hours | approximately 50% | not | downregulation is observed but not statistically significant | statistically significantly downregulated | this was achieved | significantly downmodulated
